How the values were obtained:
L02 = assay: Cytotoxicity against human HL7702 cells assessed as cell growth inhibition measured after 48 hrs by MTT assay; format: cell-based; settings: L02, 48 h
HepG2 = assay: Antiproliferative activity against human HepG2 cells assessed as cell growth inhibition measured after 48 hrs by MTT assay; format: functional, cell-based; settings: HepG2, 48 h
SMMC-7721 = assay: Antiproliferative activity against human SMMC7721 cells assessed as cell growth inhibition measured after 48 hrs by MTT assay; format: functional, cell-based; settings: SMMC-7721, 48 h
T-24 = assay: Antiproliferative activity against human T24 cells assessed as cell growth inhibition measured after 48 hrs by MTT assay; format: functional, cell-based; settings: T-24, 48 h
A549 = assay: Antiproliferative activity against human A549 cells assessed as cell growth inhibition measured after 48 hrs by MTT assay; format: functional, cell-based; settings: A549, 48 h
SK-OV-3 = assay: Antiproliferative activity against human SKOV3 cells assessed as cell growth inhibition measured after 48 hrs by MTT assay; format: functional, cell-based; settings: SK-OV-3, 48 h

Q: For CNCCCN1C(=O)c2cccc3cc([N+](=O)[O-])cc(c23)C1=O, which IC50 (L02) is on record?
A: The IC50 was 14.3 µM.

Q: And the IC50 (HepG2)?
A: Its IC50 is 10.3 µM.

Q: And the IC50 (SMMC-7721)?
A: The IC50 was 26.6 µM.

Q: What about the IC50 (T-24) of the same compound?
A: The IC50 was 9.03 µM.

Q: And the IC50 (A549)?
A: The IC50 was 19.8 µM.

Q: And the IC50 (SK-OV-3)?
A: Its IC50 is 28.2 µM.

Source: ChEMBL document CHEMBL4627310, “Design, synthesis and biological evaluation of 3-nitro-1,8-naphthalimides as potential antitumor agents” (Bioorg Med Chem Lett, 2020)
